From patent US10988449B2, “Isoxazole derivatives as nuclear receptor agonists and uses thereof” (IL DONG PHARMACEUTICAL CO., LTD., priority 2017, dated 2021)
pEC50: −log10 of the molar value.

Biological target: T1, human FXR (Homo sapiens, UniProt Q96RI1)
T1 construct: expressed in transfected cells
T1 sequence (Q96RI1 1-486): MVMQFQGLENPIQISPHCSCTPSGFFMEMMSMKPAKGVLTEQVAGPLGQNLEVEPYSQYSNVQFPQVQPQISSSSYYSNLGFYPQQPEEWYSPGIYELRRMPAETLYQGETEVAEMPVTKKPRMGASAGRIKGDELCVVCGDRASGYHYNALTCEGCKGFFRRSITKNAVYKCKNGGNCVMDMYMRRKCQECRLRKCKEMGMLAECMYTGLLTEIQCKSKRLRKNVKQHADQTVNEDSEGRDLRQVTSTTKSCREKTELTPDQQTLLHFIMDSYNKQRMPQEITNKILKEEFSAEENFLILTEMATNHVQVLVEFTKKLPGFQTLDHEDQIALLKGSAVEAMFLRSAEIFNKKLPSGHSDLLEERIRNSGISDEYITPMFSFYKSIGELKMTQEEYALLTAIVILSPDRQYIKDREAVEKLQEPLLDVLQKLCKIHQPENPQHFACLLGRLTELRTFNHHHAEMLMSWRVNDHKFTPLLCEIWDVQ
Assay: FXR reporter assay (cellular FXR activities)
Assay type: cell-based
Conditions: for pEC50: FXR reporter cells, 24 hours incubation, luciferase, read-out: Reporter Cell EC50; for Emax: read-out: Emax (%) (GW4064 Emax = 100%)
Procedure: FXR reporter assay was performed to measure cellular FXR activities of the compounds in the present invention. FXR reporter cells with high expression level of human FXR were seeded into 96-well cell culture plates, and incubated for 1-2 hours at 37° C. under 5% CO2 atmosphere. The invented compounds diluted in DMSO with various concentrations were added to the 96-well cell culture plates, and they were incubated for 24 hours at 37° C. under 5% CO2 atmosphere. After incubation, we calculate EC50 by using luciferase substrate.

| pEC50 | Emax [%] | Compound |
| --- | --- | --- |
| < 6.00 | > 100 | O=C(O)c1ccc(C#Cc2ccc(OCc3c(-c4c(Cl)cccc4Cl)noc3C3CC3)cc2)cc1 [Compound I-1, 4-((4-((5-cyclopropyl-3-(2,6-dichlorophenyl)isoxazol-4-yl)methoxy)phenyl)ethynyl)benzoic acid] |
| 6.70 to 7.22 | 91 | O=C(O)c1ccc(C#Cc2ccc(OCc3c(-c4c(Cl)cccc4Cl)noc3C3CC3)cc2C(F)(F)F)cc1 [Compound I-4, 4-((4 ((5-cyclopropyl-3-(2,6-dichlorophenyl)isoxazol-4-yl)methoxy)-2-(trifluoromethyl)phenyl)ethynyl)benzoic acid] |
| 6.00 to 6.70 | 84 | C#Cc1ccc(OCc2c(-c3c(Cl)cccc3Cl)noc2C2CC2)cc1Cl [Compound I-5, 4-((3-chloro-4-ethynylphenoxy)methyl)-5-cyclopropyl-3-(2,6-dichlorophenyl)isoxazole] |
| < 6.00 | 85 | COC(=O)c1cccc(C#Cc2ccc(OCc3c(-c4c(Cl)cccc4Cl)noc3C3CC3)cc2Cl)c1 [Compound I-7, methyl 3-((2-chloro-4-((5-cyclopropyl-3-(2,6-dichlorophenyl)isoxazol-4-yl)methoxy)phenyl)ethynyl)benzoate] |
| < 6.00 | 98 | CCOC(=O)Nc1cc(C#Cc2ccc(OCc3c(-c4c(Cl)cccc4Cl)noc3C3CC3)cc2Cl)cc(C(=O)OC)c1 [Compound I-8, methyl 3-((2-chloro-4-((5-cyclopropyl-3-(2,6-dichlorophenyl)isoxazol-4-yl)methoxy)phenyl)ethynyl)-5-((ethoxycarbonyl)amino)benzoate] |
| < 6.00 | 90 | CCOC(=O)Nc1cccc(C#Cc2ccc(OCc3c(-c4c(Cl)cccc4Cl)noc3C3CC3)cc2Cl)c1 [Compound I-11, ethyl (3-((2-chloro-4-((5-cyclopropyl-3-(2,6-dichlorophenyl)isoxazol-4-yl)methoxy)phenyl)ethynyl)phenyl)carbamate] |
| 6.00 to 6.70 | > 100 | NS(=O)(=O)c1cccc(C#Cc2ccc(OCc3c(-c4c(Cl)cccc4Cl)noc3C3CC3)cc2Cl)c1 [Compound I-12, 3-((2-chloro-4-((5-cyclopropyl-3-(2,6-dichlorophenyl)isoxazol-4-yl)methoxy)phenyl)ethynyl)benzenesulfonamide] |
| 6.00 to 6.70 | 90 | CS(=O)(=O)Nc1cccc(C#Cc2ccc(OCc3c(-c4c(Cl)cccc4Cl)noc3C3CC3)cc2Cl)c1 [Compound I-13, N-(3-((2-chloro-4-((5-cyclopropyl-3-(2,6-dichlorophenyl)isoxazol-4-yl)methoxy)phenyl)ethynyl)phenyl)methanesulfonamide] |
| 6.00 to 6.70 | 96 | NS(=O)(=O)Nc1cccc(C#Cc2ccc(OCc3c(-c4c(Cl)cccc4Cl)noc3C3CC3)cc2Cl)c1 [Compound I-14, N-(3-((2-chloro-4-((5-cyclopropyl-3-(2,6-dichlorophenyl)isoxazol-4-yl)methoxy)phenyl)ethynyl)phenyl)sulfamide] |
| 6.00 to 6.70 | 89 | O=C(O)c1ccc(C#Cc2ccc(OCc3c(-c4c(Cl)cccc4Cl)noc3C3CC3)cc2Cl)nc1 [Compound I-17, 6-((2-chloro-4-((5-cyclopropyl-3-(2,6-dichlorophenyl)isoxazol-4-yl)methoxy)phenyl)ethynyl)nicotinic acid] |
| 6.00 to 6.70 | 87 | O=C(O)c1ccnc(C#Cc2ccc(OCc3c(-c4c(Cl)cccc4Cl)noc3C3CC3)cc2Cl)c1 [Compound I-18, 2-((2-chloro-4-((5-cyclopropyl-3-(2,6-dichlorophenyl)isoxazol-4-yl)methoxy)phenyl)ethynyl)isonicotinic acid] |
| ≥ 7.70 | 99 | O=C(O)c1cccc(C#Cc2ccc(OCc3c(-c4c(Cl)cccc4Cl)noc3C3CC3)cc2Cl)n1 [Compound I-19, 6-((2-chloro-4-((5-cyclopropyl-3-(2,6-dichlorophenyl)isoxazol-4-yl)methoxy)phenyl)ethynyl)picolinic acid] |
| 6.70 to 7.22 | 93 | CN(C)c1cc(C(=O)O)ccc1C#Cc1ccc(OCc2c(-c3c(Cl)cccc3Cl)noc2C2CC2)cc1Cl [Compound I-22, 4-((2-chloro-4-((5-cyclopropyl-3-(2,6-dichlorophenyl)isoxazol-4-yl)methoxy)phenyl)ethynyl)-3-(dimethylamino)benzoic acid] |
| 6.70 to 7.22 | > 100 | CN(C)c1cc(C#Cc2ccc(OCc3c(-c4c(Cl)cccc4Cl)noc3C3CC3)cc2Cl)ccc1C(=O)O [Compound I-23, 4-((2-chloro-4-((5-cyclopropyl-3-(2,6-dichlorophenyl)isoxazol-4-yl)methoxy)phenyl)ethynyl)-2-(dimethylamino)benzoic acid] |
| 7.22 to 7.70 | > 100 | CCN(CC)c1cc(C#Cc2ccc(OCc3c(-c4c(Cl)cccc4Cl)noc3C3CC3)cc2Cl)cc(C(=O)O)c1 [Compound I-24, 3-((2-chloro-4-((5-cyclopropyl-3-(2,6-dichlorophenyl)isoxazol-4-yl)methoxy)phenyl)ethynyl)-5-(diethylamino)benzoic acid] |
| 6.00 to 6.70 | > 100 | CN(C)c1ccc(C(=O)O)cc1C#Cc1ccc(OCc2c(-c3c(Cl)cccc3Cl)noc2C2CC2)cc1Cl [Compound I-26, 3-((2-chloro-4-((5-cyclopropyl-3-(2,6-dichlorophenyl)isoxazol-4-yl)methoxy)phenyl)ethynyl)-4-(dimethylamino)benzoic acid] |
| 7.22 to 7.70 | 91 | O=C(O)c1cc(Cl)cc(C#Cc2ccc(OCc3c(-c4c(Cl)cccc4Cl)noc3C3CC3)cc2Cl)c1 [Compound I-27, 3-chloro-5-((2-chloro-4-((5-cyclopropyl-3-(2,6-dichlorophenyl)isoxazol-4-yl)methoxy)phenyl)ethynyl)benzoic acid] |
| 6.70 to 7.22 | 93 | O=C(O)c1cc(C#Cc2ccc(OCc3c(-c4c(Cl)cccc4Cl)noc3C3CC3)cc2Cl)ccc1Cl [Compound I-29, 2-chloro-5-((2-chloro-4-((5-cyclopropyl-3-(2,6-dichlorophenyl)isoxazol-4-yl)methoxy)phenyl)ethynyl)benzoic acid] |
| 7.22 to 7.70 | > 100 | O=C(O)c1cc(C#Cc2ccc(OCc3c(-c4c(Cl)cccc4Cl)noc3C3CC3)cc2Cl)cc(C(F)(F)F)c1 [Compound I-31, 3-((2-chloro-4-((5-cyclopropyl-3-(2,6-dichlorophenyl)isoxazol-4-yl)methoxy)phenyl)ethynyl)-5-(trifluoromethyl)benzoic acid] |
| 6.70 to 7.22 | 94 | C#Cc1cc(C#Cc2ccc(OCc3c(-c4c(Cl)cccc4Cl)noc3C3CC3)cc2Cl)cc(C(=O)O)c1 [Compound I-32, 3-((2-chloro-4-((5-cyclopropyl-3-(2,6-dichlorophenyl)isoxazol-4-yl)methoxy)phenyl)ethynyl)-5-ethynylbenzoic acid] |
| 6.70 to 7.22 | 99 | N#Cc1cc(C#Cc2ccc(OCc3c(-c4c(Cl)cccc4Cl)noc3C3CC3)cc2Cl)cc(C(=O)O)c1 [Compound I-33, 3-((2-chloro-4-((5-cyclopropyl-3-(2,6-dichlorophenyl)isoxazol-4-yl)methoxy)phenyl)ethynyl)-5-cyanobenzoic acid] |
| 6.70 to 7.22 | 100 | O=C(O)c1cccc(C#Cc2c(Cl)cc(OCc3c(-c4c(Cl)cccc4Cl)noc3C3CC3)cc2Cl)c1 [Compound I-34, 3-((2,6-dichloro-4-((5-cyclopropyl-3-(2,6-dichlorophenyl)isoxazol-4-yl)methoxy)phenyl)ethynyl)benzoic acid] |
| 6.00 to 6.70 | 86 | O=C(O)c1cccc(C#Cc2ccc(OCc3c(-c4c(Cl)cccc4Cl)noc3C3CC3)cc2Cl)c1Cl [Compound I-35, 2-chloro-3-((2-chloro-4-((5-cyclopropyl-3-(2,6-dichlorophenyl)isoxazol-4-yl)methoxy)phenyl)ethynyl)benzoic acid] |
| 6.70 to 7.22 | 93 | O=C(O)c1cccc(C#Cc2ccc(OCc3c(-c4c(Cl)cccc4Cl)noc3C3CC3)cc2Cl)c1F [Compound I-36, 3-((2-chloro-4-((5-cyclopropyl-3-(2,6-dichlorophenyl)isoxazol-4-yl)methoxy)phenyl)ethynyl)-2-fluorobenzoic acid] |
| 6.70 to 7.22 | 94 | O=C(O)c1cc(C#Cc2ccc(OCc3c(-c4c(Cl)cccc4Cl)noc3C3CC3)cc2Cl)ccc1F [Compound I-37, 5-((2-chloro-4-((5-cyclopropyl-3-(2,6-dichlorophenyl)isoxazol-4-yl)methoxy)phenyl)ethynyl)-2-fluorobenzoic acid] |
| 6.00 to 6.70 | 85 | O=C(O)c1cc(C#Cc2ccc(OCc3c(-c4c(Cl)cccc4Cl)noc3C3CC3)cc2Cl)cc(OC(F)(F)F)c1 [Compound I-39, 3-((2-chloro-4-((5-cyclopropyl-3-(2,6-dichlorophenyl)isoxazol-4-yl)methoxy)phenyl)ethynyl)-5-(trifluoromethoxy)benzoic acid] |
